The values that follow come from the NIST ThermoML archive (doi:10.1021/je100315g).

Numbers after ± are expanded uncertainties.

The conditions of the data set: 101 kPa, Liquid.

Regarding `C1CCOC1` [tetrahydrofuran], the mass density is, setting by setting: (293.15 K) 887.41 ± 0.46 kg/m3; (298.15 K) 881.98 ± 0.46 kg/m3; (303.13 K) 876.47 ± 0.47 kg/m3; (308.15 K) 870.96 ± 0.48 kg/m3.

As usually defined, the mass density is mass per unit of volume.
